Peptide text beside a SMILES is read from it. * marks the point of attachment. Doxorubicin(3'-N) = COc1cccc2c1C(=O)c1c(O)c3c(c(O)c1C2=O)C[C@@](O)(C(=O)CO)C[C@@H]3O[C@H]1C[C@H](N*)[C@H](O)[C@H](C)O1; Boc = CC(C)(C)OC(=O)*
How the values were obtained:
[1] = test system: legumain+ 293 cells; assay: modified Boyden chamber invasion assay; format: cell-based, human
Method: (§1) Cell invasion and mobility assays. Cell migration and invasion assays were performed as described with modifications (Albini et al., 1987). Stock solutions (15 mg/ml) of Matrigel basement membrane matrix (Becton Dickinson, Bedford, Mass.) were stored at −80° C. in 100 μl aliquots. After thawing on ice, the stock was diluted 1:50 with cold serum-free culture media and immediately applied to each membrane insert (8 μm pore) that formed the upper chambers of the multi-well invasion assay plate. The Matrigel was incubated overnight in a sterile laminar tissue culture hood. The membranes were hydrated for 2 hours with 250 μl of serum-free medium and excess medium was removed by aspiration. Medium containing 10% FBS was added to the bottom of each well. A suspension of 10^5 cells in 150 μl of serum-free medium was added to the upper chamber and incubated for 12 hours at 37° C., 5% CO2. At the indicated times, the membrane inserts were removed from the plate and the non-invading cells were removed from the upper surface. Membrane associated cells were stained with 0.09% crystal violet for 30 minutes and washed twice with PBS. The invading cells were counted microscopically. Cell mobility assays were performed in a similar manner except the membrane inserts were not coated with Matrigel, and duration was shortened. […]

[2] = test system: cancer cells; assay: chemo-sensitizing cytotoxic assay, TNF-α plus legumain inhibitor; format: cell-based; conditions: compared among AEPI-1 to AEPI-5
Method: Chemo-sensitizing Cytotoxic Assay. Cancer cells were prepared for the assay as follows. The cells were centrifuged at 800 rpm for 10 minutes, resuspended in DMEM to a density of 1.0×10^5 cells/ml. Approximately 5 ml of cells were used per assay plate. Cells (100 ul) were added to a 96-well flat bottom plate (10,000 cells/well, all the inner wells) and 100 ul of media was added to the outer wells. The plates were incubated at 37° C. overnight. AEPI dilutions were prepared using a 96 well round bottom plate and medium as the diluent. After overnight incubation, the media was removed from the cancer cell assay plate, and the selected AEPI was added at the selected dilution or concentration. An additional 200 ul of media was added to the outer wells. Plates were incubated overnight at 37° C. XTT reagent (or other cell viability reagent) was prepared in phenol red free media. The media was removed from cells and 200 ul of fresh media containing the XTT reagent was added to all wells. The plates were incubated for 30 min to 4 hrs and cell viability was determined by reading the plates according to manufacturer specifications.

[3] = test system: legumain-expressing 293 (293L) cells; assay: UV-induced apoptosis of legumain-expressing 293 cells; format: cell-based, human; conditions: dead cells after UV treatment as a function of AEPI-5 concentration
[4] = test system: legumain-expressing 293 (293L) cells; assay: TNF-α induced cell death with or without AEPI-5; format: cell-based, human; conditions: with or without AEPI-5, function of TNF-α concentration
[5] = target: T1, legumain in MDA MB231 breast cancer cells (Homo sapiens, UniProt Q99538); assay: AEPI inhibitory assay, intracellular legumain activity; format: cell-based
T1 construct: endogenous in cells; host or cells: MDA-MB-231 human breast cancer cells
T1 sequence (Q99538 18-323): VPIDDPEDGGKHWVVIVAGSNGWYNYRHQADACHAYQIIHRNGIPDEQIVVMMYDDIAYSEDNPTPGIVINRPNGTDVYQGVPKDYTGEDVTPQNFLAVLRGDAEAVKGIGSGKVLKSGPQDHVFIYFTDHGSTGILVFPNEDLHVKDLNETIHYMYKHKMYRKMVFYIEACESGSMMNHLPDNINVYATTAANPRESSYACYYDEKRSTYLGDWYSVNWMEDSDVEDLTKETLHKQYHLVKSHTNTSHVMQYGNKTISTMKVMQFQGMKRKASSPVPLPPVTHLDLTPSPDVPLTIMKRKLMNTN
Method: AEPI Inhibitory Assay. Cancer cells were centrifuged at 800 rpm for 10 minutes and resuspended in DMEM to a density of 1.0×10^5 cells/ml. Approximately 5 ml of cells is used per assay plate. Cells (100 ul) were added to a 96-well plat bottom plate (10,000 cells/well, all the inner wells) and 100 ul of media was added to the outer wells. The cells were incubated at 37° C. overnight. The inhibitor compounds were diluted in a 96 well round bottom plate and the old media was removed from the cancer cell assay plate. The inhibitor (100 ul) was added to the cell assay plate and 200 ul of media was added to the outer wells. One to three days after the cancer cells were exposed to the inhibitor, the AEP activity was assessed as follows. Cells were detached with Trypsin-free cell-cell detachment media and transfer to Eppendorf tubes. Cells were then disrupted and the AEPI substrate was added to the cell lysate. This assay mixture was then incubated for an appropriate period of time and the amount of activated substrate was measured with fluorometer.

[6] = test system: legumain-promoted cancer cell invasion; assay: cancer cell invasion assay with recombinant legumain protein; format: cell-based; conditions: recombinant legumain protein added
Method: as §1

[7] = test system: legumain+ 293 cells; assay: in vitro migration assay; format: cell-based, human
Method: as §1

[8] = target: T2, cell surface bound legumain (Homo sapiens, UniProt Q99538); assay: gelatin zymogram, activation of progelatinase A by cells expressing legumain; format: cell-based; conditions: zymogen incubated with cells 10 minutes
T2 construct: expressed in transfected cells; host or cells: 293 cells stably expressing human legumain (legumain+ 293)
T2 sequence (Q99538 18-323): as above
Method: Zymogram. Control 293 cells and legumain+ 293 cells were plated into 96 wells plates at a cell density of 4,000 cells/well. The cells were allowed to attach overnight, then were serum starved for four hours. Zymogen forms of metalloproteinase 2 or 9 (Chemicon, Temecula, Calif.) were added at concentration of 0.1 μg/well with 50 μl reaction buffer (39.5 mM citric acid, 121 mM Na2HPO4, pH 5.8, 1 mM EDTA, and 0.8% […]) and the reactions were continued for 10 minutes. The reactants were collected and mixed with an equal volume of SDS sample buffer and held at room temperature for 10 minutes then applied to a zymogram gel (10% Tris-Glycine gel with 0.1% gelatin substrate). After electrophoresis, the gel was washed briefly and incubated with 2.5% (v/v) Triton X-100 at room temperature for 30 minutes with gentle agitation. Digestion of the incorporated gelatin by activated collagenase was conducted in buffer ([…], pH 7.25, 200 mM NaCl, […], 0.05% Brij-35, 0.02% NaN3) overnight. The gel was stained with Coomassie Blue R250 (Novex, San Diego, Calif.) and the presence of a protease was readily observed as a clear band.
Activation of progelatinase A by legumain. […] Zymogen forms of gelatinase A and B were incubated with the cells for 10 minutes, and the reaction products were analyzed by zymography. […] Moreover, no effect of legumain on zymogen gelatinase B was detected.

[9] = test system: control 293 cells; assay: WST-1 cytotoxicity assay, control 293 cells; conditions: control 293 cells, 48 h
Method: (§2) Cytotoxic assays. The WST-1 cell proliferation reagent (Roche Molecular Chemicals, Germany) was used to determine cell proliferation by quantification of cellular metabolic activity. Control 293 cells and legumain+ 293 cells were cultivated in microtiter plates (5×10^3 cells per well in 100 μl) and were incubated with serial concentrations of legubicin or doxorubicin for 48 h. Subsequently, 10 μl of WST-1 solution (1 mg/ml WST-1, 25 μM -methyldibenzopyrazine methyl sulfate) was added per well, and mixtures were incubated for an additional 4 h. The tetrazolium salt WST-1 (4-[3-(4-lodophenyl)-2-(4-nitrophenyl)-2H-5-tetrazolio-1,3-benzene disfonate) was cleaved by the mitochondrial succinate-tetrazolium-reductase system to formazan in cells which directly correlates to the number of metabolically viable cells in the culture. The amount of formazan salt was quantified in three replicates by absorbance at 450 nm using a micro-plate reader (Molecular Devices, Palo Alto, Calif.).
(§3) Cytotoxicity assays. The WST-1 cell proliferation reagent (Roche Molecular Chemicals, Germany) was used to determine cell proliferation by quantization of cellular metabolic activity. […] The amount of formazan salt was quantified in three replicates by absorbance at 450 nm using a micro-plate reader (Molecular Devices, Palo Alto, Calif.).

[10] = test system: CT26 murine colon carcinoma; assay: CT26 syngeneic murine colon carcinoma model; format: in vivo, Balb/c mice
From the text: Animal models. […] Balb/C mice aged 4 to 6 weeks from the breeding colony were inoculated with 500,000 syngeneic CT26 tumor cells per site subcutaneously in the back. […] Treatment was repeated at 2 day intervals. The human 293 tumor models were generated in WEHI nude mice (The Scripps Research Institute breeding colony). […] Tumor growth and physical signs were monitored daily including any gross evidence of tumor necrosis, local tumor ulceration as well as evidence of toxicity including mobility, response to stimulus, eating, and weight of each animal. These procedures have been reviewed and approved by the Institutional Animal Care and Use Committee at The Scripps Research Institute. The work was conducted in The Scripps Research Institute facilities which are accredited by the Association for the Assessment and Accreditation of Laboratory Animal Care. The Scripps Research Institute maintains an assurance with the Public Health Service, is registered with the United States Department of Agriculture and is in compliance with all regulations relating to animal care and welfare.
Animal models. […] Treatment was three times per week for two weeks.

[11] = test system: legumain+ 293 cells; assay: WST-1 cytotoxicity assay, legumain+ 293 cells; conditions: 48 h
Method: as §2, §3

**Q.** For `CC(C)C[C@H](NC(=O)[C@H]1O[C@@H]1C(=O)O)C(=O)NCCCCN=C(N)N` [E64, reference compound], which “increased invasion of extracellular matrix by legumain+ cells” value [1] is on record?
**A.** without effect

**Q.** With `CCOC(=O)C1OC1C(=O)N(CC(N)=O)NC(=O)C(C)NC(=O)C(C)NC(C)=O` [AEPI-5, N-acetyl-Ala-Ala-AzaAsn-(S,S)-EPCOOEt] as the compound, how does the “cancer cell death on combined treatment with TNF-α” value [2] read?
**A.** higher levels of cancer cell death

**Q.** What about the UV-induced apoptosis [3] of the same compound?
**A.** sensitizes legumain-expressing 293 cells to UV-induced apoptosis

**Q.** What about the “TNF-α induced cell death” value [4] of the same compound?
**A.** sensitizes MDA-MB-231 human breast cancer cells to TNF-α induced cell death

**Q.** What about the “inhibition of legumain activities in MDA MB231 breast cancer cells” value ([5]; compared among AEPI-1 to AEPI-5) of the same compound?
**A.** greatest inhibition

**Q.** And the cell permeability ([5]; preliminary results)?
**A.** sufficiently cell permeable

**Q.** With cystatin as the compound, how does the legumain-promoted cell invasion [6] read?
**A.** partially inhibited

**Q.** What about the “enhanced migration of legumain+ 293 cells” value [7] of the same compound?
**A.** inhibited

**Q.** What about the “increased invasion of extracellular matrix by legumain+ cells” value [1] of the same compound?
**A.** inhibited

**Q.** And the “generation of the 62 kDa active gelatinase A by cells expressing legumain” value [8]?
**A.** inhibited

**Q.** What does the source list for `COc1cccc2c1C(=O)c1c(O)c3c(c(O)c1C2=O)C[C@@](O)(C(=O)CO)C[C@@H]3O[C@H]1C[C@H](NC(=O)[C@H](CC(C)C)NC(=O)[C@H](CC(N)=O)NC(=O)[C@H](C)NC(=O)[C@H](C)NC(=O)OC(C)(C)C)[C@H](O)[C@H](C)O1` [legubicin, N-(-t-Butoxycarbonyl-L-alanyl-L-alanyl-L-asparaginyl-L-leucyl)doxorubicin] (Boc-AANL-{Doxorubicin(3'-N)})?
**A.** cytotoxic effect relative to that of doxorubicin [9]: less than 1%; toxicity ([10]; i.p. 5 mg/kg three times at 2 day intervals): little evidence of toxicity; injury in organs that express legumain (kidney, liver) ([10]; single injection of 5 mg/kg): no injury was evident; cytotoxic effect on legumain+ 293 cells [11]: profound cytotoxic effect
